{"source": "patent US10517842B2", "about": "“Methods of modulating miRNA levels and compositions for use in the same” (Los Angeles Biomedical Research Institute at Harbor-UCLA …, priority 2017, dated 2019)", "format_in_all_cases": "cell-based, human", "key": {"[1]": {"test_system": "CCND1", "assay": "Quantitative RT-PCR, mRNA expression in LSMC", "conditions": "Tranilast 200 μM vs DMSO, 12 h to 48 h, P<0.05", "procedure": "(§1) Total RNA was extracted from LSMC using RNAzol (GeneCopoeia, Rockville, Md.) and their quantity and quality was determined (ND-1000 Spectrophotometer, NanoDrop Technologies, Wilmington, Del.) as previously described (Chuang & Khorram, “miR-200c Regulates IL8 Expression by Targeting IKBKB: A Potential Mediator of Inflammation in Leiomyoma Pathogenesis,” PloS one (2014) 9:e95370). For medium miRNA extraction, 5 pg of synthetic miR-1 from Caenorhabditis elegans (cel-miR-1) was added as a spike-in control for purification efficiency. Subsequently, 2 μg or 10 ng (for miRNA) was reverse transcribed using random primers for CCND1, CDK2, COL1A1, COL3A1, TGF-β3, DNMT1 and EZH2 or specific primers for miR-29c and miR-200c according to the manufacturer's guidelines (Applied Biosystems, Carlsbad, Calif.). Quantitative RT-PCR was carried out using SYBR gene expression master mix or TaqMan miRNA expression assays (Applied Biosystems). Reactions were incubated for 10 min at 95° C. followed by 40 cycles for 15 seconds at 95° C. and 1 min at 60° C. The level of mRNAs and expression of cellular and secreted miRNA was determined using the Invitrogen StepOne System with 18S, RNU6B and cel-miR-1 used for normalization respectively. All reactions were run in triplicate and relative expression was analyzed with the comparative cycle threshold method (2^−ΔΔCT) according to the manufacturer (Applied Biosystems). Values were expressed as fold change compared to the control group."}, "[2]": {"test_system": "CDK2", "assay": "Quantitative RT-PCR, mRNA expression in LSMC", "conditions": "Tranilast 200 μM vs DMSO, 12 h to 48 h, P<0.05", "procedure": "as §1"}, "[3]": {"test_system": "COL1", "assay": "Quantitative RT-PCR, mRNA expression in LSMC", "conditions": "Tranilast 200 μM vs DMSO, 12 h to 48 h, P<0.05", "procedure": "as §1"}, "[4]": {"test_system": "COL3A1", "assay": "Quantitative RT-PCR, mRNA expression in LSMC", "conditions": "Tranilast 200 μM vs DMSO, 12 h to 48 h, P<0.05", "procedure": "as §1"}, "[5]": {"test_system": "DNMT1", "assay": "Quantitative RT-PCR, mRNA expression in LSMC", "conditions": "Tranilast 200 μM vs DMSO, 12 h to 48 h, P<0.05", "procedure": "as §1"}, "[6]": {"test_system": "EZH2", "assay": "Quantitative RT-PCR, mRNA expression in LSMC", "conditions": "Tranilast 200 μM vs DMSO, 12 h to 48 h, P<0.05", "procedure": "as §1"}, "[7]": {"test_system": "TGF-β3", "assay": "Quantitative RT-PCR, mRNA expression in LSMC", "conditions": "Tranilast 200 μM vs DMSO, 12 h to 48 h, P<0.05", "procedure": "as §1"}, "[8]": {"test_system": "miR-200c promoter", "assay": "Methylation-specific PCR in LSMC", "conditions": "Tranilast 200 μM, 24 hrs, Me/Me+Un, P<0.05", "procedure": "(§2) LSMC at sub-confluence were treated with Tranilast (200 μM) for 24 hrs and genomic DNA was extracted and treated with bisulfite (EZ DNA Methylation Kit, Zymo Research Corporation, Irvine, Calif.). Since methylated cytosine residues remained unchanged after bisulfite conversion, this approach allows distinguishing DNA sequences which are methylated or unmethylated in specific genomic regions using sequence-specific PCR primers (Li & Dahiya, “MethPrimer: designing primers for methylation PCRs,” Bioinformatics (2002)18:1427-31). The pair of primers used to detect the methylated (Me) sequence of miR-29c promoter were 5′-[…]-3′ (SEQ ID NO:17) and 5′-[…]-3′ (SEQ ID NO:18) and for the unmethylated (Un) sequence of miR-29c promoter were 5′-[…]-3′ (SEQ ID NO:19) and 5′-[…]-3′ (SEQ ID NO:20). The pair of primers used to detect the methylated (Me) sequence of miR-200c promoter were 5′-[…]-3′ (SEQ ID NO:21) and 5′-[…]-3′ (SEQ ID NO:22), and for the unmethylated (Un) sequence of miR-200c promoter were 5′-[…]-3′ (SEQ ID NO:23) and 5′-[…]-3′ (SEQ ID NO:24). DNA amplification was carried out following manufacturer's protocol (HotStarTaq Plus PCR reagent, Qiagen, Valencia, Calif.). The PCR condition was 5 min at 95° C., followed by 40 cycles of amplification at 94° C. for 30 seconds, 30 seconds at 55° C., and 1 min at 72° C. […]"}, "[9]": {"test_system": "miR-29c promoter", "assay": "Methylation-specific PCR in LSMC", "conditions": "Tranilast 200 μM, 24 hrs, Me/Me+Un, P<0.05", "procedure": "as §2"}}, "data": [{"compound": "COc1ccc(C=CC(=O)Nc2ccccc2C(=O)O)cc1OC", "note": "[Tranilast, 2-[[3-(3,4-dimethoxyphenyl)-1-oxo-2-propenyl]amino]benzoic acid]", "values": [{"measurement": "CCND1 expression, mRNA level", "setting": "[1]", "result": "significantly inhibited"}, {"measurement": "CDK2 expression, mRNA level", "setting": "[2]", "result": "significantly inhibited"}, {"measurement": "COL1 expression, mRNA level", "setting": "[3]", "result": "significantly inhibited"}, {"measurement": "COL3A1 expression, mRNA level", "setting": "[4]", "result": "significantly inhibited"}, {"measurement": "DNMT1 expression, mRNA level", "setting": "[5]", "result": "significantly inhibited"}, {"measurement": "EZH2 expression, mRNA level", "setting": "[6]", "result": "significantly inhibited"}, {"measurement": "TGF-β3 expression, mRNA level", "setting": "[7]", "result": "significantly inhibited"}, {"measurement": "methylation status in miR-200c promoter", "setting": "[8]", "result": "significantly suppressed"}, {"measurement": "methylation status in miR-29c promoter", "setting": "[9]", "result": "significantly suppressed"}]}]}
